The values below come from patent publication US9850470B2, “Polyene-specific glycosyltransferase derived from Pseudonocardia autotrophica” (INHA-INDUSTRY PARTNERSHIP INSTITUTE, priority 2013, dated 2017).

Series [1] can be described thus: hemolytic activity of NPP compared with nystatin. In kind it is cell-based.
Series [2] in a line: solubility of NPP compared with nystatin. In kind it is physicochemical.
Where [3] appears, read: relative to nystatin which contains only a saccharide.
Where [4] appears, read: relative to nystatin, which contains only mycosamine.

Consider `CC(=O)NC1C(OC2C(C)OC(OC3/C=C/C=C/C=C/C=C/CC/C=C/C=C/C(C)C(O)C(C)C(C)OC(=O)CC(O)CC(O)CC(O)CCC(O)C(O)CC4(O)CC(O)C(C(=O)O)C(C3)O4)C(O)C2N)OC(CO)C(O)C1O` (stereo not shown) [NPP, nystatin-like polyene (NPP)], for which, in series [1] (setting [3]), the “hemolytic activity compared with nystatin (in words)” value is on record as “lower hemolytic activity”. Further, the “lower hemolytic activity than nystatin” value in series [1] (setting [4]) is 10 fold. Further, the “solubility compared with nystatin (in words)” value in series [2] (setting [3]) is “higher solubility”. Further, the “higher solubility than nystatin” value in series [2] (setting [4]) is reported as “more than 300 fold”.
